According to ChEMBL document CHEMBL1201862, “PubChem BioAssay data set” (2004):
The source made the active and inactive calls.

Key:
HEK293 [1] = experiment: Fluorescence-based counterscreen for potentiators or agonists of NPY-Y2: cell-based high-throughput dose response assay to identify inhibitors of cyclic nucleotide gated ion channel (CNGC) activity. In this assay, the parental HEK293 cell line transfected with a cyclic-nucleotide gated ion channel (CNGC)-based cAMP sensor is used to measure inhibition of isoproterenol-induced CNGC activity by test compound.; format: functional; conditions: Homo sapiens
[2] = tested on: Streptococcus sp. 'group A'; experiment: Streptococcus pyogenes SK(-)GAS viability under kanamycin – luminescence, BacTiterGlo, confirmation, counter-screen for streptokinase expression inhibitor project, dose response (AID 1900); format: functional, organism-based
cells [3] = format: functional, cell-based
[4] = target: T1, Neuropeptide Y receptor type 2 (Homo sapiens, UniProt P49146); experiment: Fluorescence-based cell-based high-throughput dose response assay for agonists of NPY-Y2. [Related pubchem assays: 1703 (Screening assay (CNGC inhibitors).), 1359 (Screening assay (NPY-Y2 potentiators or agonists).), 1304 (Screening assay (NPY-Y1 potentiators or agonists).), 1710 (Screening assay (NPY-Y2 agonists).), 1791 (Summary AID.)]; format: functional
T1 sequence (P49146 whole entry): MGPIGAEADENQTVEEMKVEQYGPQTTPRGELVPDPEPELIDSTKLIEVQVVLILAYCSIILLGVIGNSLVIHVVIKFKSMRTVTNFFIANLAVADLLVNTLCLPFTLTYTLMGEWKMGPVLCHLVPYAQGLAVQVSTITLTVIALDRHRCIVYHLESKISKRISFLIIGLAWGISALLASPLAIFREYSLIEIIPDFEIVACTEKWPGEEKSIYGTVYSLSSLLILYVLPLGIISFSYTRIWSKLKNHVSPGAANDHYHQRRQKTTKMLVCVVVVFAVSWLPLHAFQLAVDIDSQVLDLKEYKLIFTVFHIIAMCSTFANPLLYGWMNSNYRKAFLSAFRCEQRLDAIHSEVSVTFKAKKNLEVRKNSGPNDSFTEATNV

Streptokinase A = target: T2, Streptokinase A (Streptococcus pyogenes serotype M1, UniProt P10520); experiment: viability-normalized secreted streptokinase activity reduction – plasminogen activation absorbance, OD405, dose response (AID 1914); format: functional, Streptococcus pyogenes M1 GAS;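 further: secreted streptokinase activity via plasminogen activation per viability signal from cell pellet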
T2 sequence (P10520 whole entry): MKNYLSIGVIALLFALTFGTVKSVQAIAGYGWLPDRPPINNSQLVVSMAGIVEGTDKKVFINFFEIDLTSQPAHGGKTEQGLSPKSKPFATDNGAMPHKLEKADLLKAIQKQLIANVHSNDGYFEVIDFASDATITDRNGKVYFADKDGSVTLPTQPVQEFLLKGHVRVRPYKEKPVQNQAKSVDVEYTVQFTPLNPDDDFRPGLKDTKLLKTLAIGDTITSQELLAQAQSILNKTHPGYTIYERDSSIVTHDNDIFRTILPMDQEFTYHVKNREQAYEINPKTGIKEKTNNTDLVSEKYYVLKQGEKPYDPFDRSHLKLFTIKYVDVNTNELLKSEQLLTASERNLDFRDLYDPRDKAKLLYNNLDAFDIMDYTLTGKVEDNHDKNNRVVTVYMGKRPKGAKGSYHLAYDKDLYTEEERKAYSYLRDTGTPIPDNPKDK

cells [5] = format: functional, cell-based; remark: listed apart in the source
[6] = target: T3, Neuropeptide Y receptor type 1 (Homo sapiens, UniProt P25929); experiment: Fluorescence-based counterscreen for agonists of NPY-Y2: cell-based high-throughput dose response assay for agonists of NPY-Y1.; format: functional
T3 sequence (P25929 whole entry): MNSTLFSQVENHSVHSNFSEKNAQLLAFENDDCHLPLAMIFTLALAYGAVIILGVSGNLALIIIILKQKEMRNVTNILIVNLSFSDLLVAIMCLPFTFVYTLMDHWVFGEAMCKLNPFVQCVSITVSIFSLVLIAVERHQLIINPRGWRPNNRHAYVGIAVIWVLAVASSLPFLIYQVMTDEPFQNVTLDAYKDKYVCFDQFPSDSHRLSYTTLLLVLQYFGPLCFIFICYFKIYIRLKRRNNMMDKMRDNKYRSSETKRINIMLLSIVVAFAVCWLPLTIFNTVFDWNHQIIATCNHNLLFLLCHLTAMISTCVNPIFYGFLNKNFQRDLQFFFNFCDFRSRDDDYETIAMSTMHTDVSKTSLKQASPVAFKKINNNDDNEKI

Streptococcus = experiment: GAS UMAA2166 growth inhibition – luminescence, BacTiterGlo, counter-screen for streptokinase expression inhibitor project, dose response (AID 1915); format: functional, organism-based;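 further: potency for reduction of bacterial viability or growth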
BJ = experiment: growth inhibition of engineered Ras-driven BJ cells – cell-based, alamar blue fluorescence, cherrypicked samples, dose response (AID 2631); format: functional; conditions: Homo sapiens;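 further: confirmatory dose-response assay in RAS-dependent BJ fibroblasts engineered with TERT, LT and ST, with cytotoxicity read by fluorescence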
INS1 = experiment: INS-1E survival protection against cytokine death – cell-based, luminescence, retest, dose response (AID 449756); format: functional; conditions: Rattus norvegicus;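 further: cell death triggered by IL-1 beta plus TNF-alpha plus IFN-gamma mixture; protective hits raise ATP signal compared with cytokine alone wells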
[7] = target: T4, DNA repair protein RAD52 homolog (Homo sapiens, UniProt P43351); format: functional, biochemical
T4 sequence (P43351 whole entry): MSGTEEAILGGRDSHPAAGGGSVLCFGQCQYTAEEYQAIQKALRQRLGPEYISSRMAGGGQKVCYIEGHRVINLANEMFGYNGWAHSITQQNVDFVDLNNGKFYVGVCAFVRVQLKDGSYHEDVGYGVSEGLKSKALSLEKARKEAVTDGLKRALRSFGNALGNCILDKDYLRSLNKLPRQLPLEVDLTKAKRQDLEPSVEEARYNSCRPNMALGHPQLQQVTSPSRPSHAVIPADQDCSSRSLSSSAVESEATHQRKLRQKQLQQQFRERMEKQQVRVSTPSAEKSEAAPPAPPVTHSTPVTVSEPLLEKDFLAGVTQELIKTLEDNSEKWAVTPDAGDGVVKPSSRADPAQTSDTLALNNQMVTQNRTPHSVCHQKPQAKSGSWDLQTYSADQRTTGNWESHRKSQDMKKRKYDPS

[8] = target: T1, Neuropeptide Y receptor type 2; experiment: Fluorescence-based counterscreen for agonists of NPY-Y1: cell-based high-throughput dose response assay for agonists of NPY-Y2.; format: functional
HEK293 [9] = experiment: Fluorescence-based counterscreen for potentiators or agonists of NPY-Y1: cell-based high-throughput dose response assay for inhibitors of cyclic nucleotide gated ion channel (CNGC) activity. In this assay, the parental HEK293 cell line transfected with a cyclic-nucleotide gated ion channel (CNGC)-based cAMP sensor is used to measure inhibition of isoproterenol-induced CNGC …; format: functional; conditions: Homo sapiens
[10] = target: T3, Neuropeptide Y receptor type 1; experiment: Fluorescence-based dose response cell-based high-throughput screening assay for agonists of NPY-Y1. [Related pubchem assays: 1697 (Screening assay (NPY-Y1 agonists).), 1359 (Screening assay (NPY-Y2 potentiators or agonists).), 1304 (Screening assay (NPY-Y1 potentiators or agonists).), 1704 (Screening assay (CNGC inhibitors).), 1791 (Summary AID.)]; format: functional
[11] = target: Transitional endoplasmic reticulum ATPase (Homo sapiens, UniProt P55072, C522A); experiment: C522A mutant p97 ATPase inhibitors, dose response, counter-screen for p97 inhibitor project, biochemical, luminescence (AID 1544)
Transitional endoplasmic reticulum ATPase (Homo sapiens, UniProt P55072, C522A), sequence (P55072 2-806 C522A limits assumed): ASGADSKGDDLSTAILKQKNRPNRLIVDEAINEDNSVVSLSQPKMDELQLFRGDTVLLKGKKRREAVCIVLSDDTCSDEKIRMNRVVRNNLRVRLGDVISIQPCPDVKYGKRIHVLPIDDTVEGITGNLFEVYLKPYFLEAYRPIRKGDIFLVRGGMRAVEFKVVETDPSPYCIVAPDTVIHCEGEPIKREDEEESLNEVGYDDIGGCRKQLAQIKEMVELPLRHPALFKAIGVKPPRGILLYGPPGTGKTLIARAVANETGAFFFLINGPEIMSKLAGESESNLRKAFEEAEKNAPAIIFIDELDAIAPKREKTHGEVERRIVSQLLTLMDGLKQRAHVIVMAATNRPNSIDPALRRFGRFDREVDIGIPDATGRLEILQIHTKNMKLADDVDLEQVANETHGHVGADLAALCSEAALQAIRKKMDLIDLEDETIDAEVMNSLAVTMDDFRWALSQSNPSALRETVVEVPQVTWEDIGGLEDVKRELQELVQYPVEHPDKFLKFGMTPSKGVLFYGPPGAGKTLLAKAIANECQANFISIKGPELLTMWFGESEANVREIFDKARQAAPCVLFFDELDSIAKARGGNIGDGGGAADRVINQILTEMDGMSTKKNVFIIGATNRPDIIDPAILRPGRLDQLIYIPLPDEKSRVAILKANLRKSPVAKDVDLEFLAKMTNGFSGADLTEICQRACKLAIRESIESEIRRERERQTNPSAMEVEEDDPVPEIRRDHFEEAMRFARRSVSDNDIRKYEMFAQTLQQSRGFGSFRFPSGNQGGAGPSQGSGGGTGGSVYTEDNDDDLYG

[12] = Trypanosoma cruzi growth suppression in host cells – NIH3T3 host cells, beta-gal luminescence, confirmation (AID 2044); format: functional, cell-based;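 further: intracellular parasites grown in NIH/3T3 mouse fibroblasts as host cells; luminescent beta-galactosidase reporter signal from transgenic T. cruzi replicating inside host cells; inhibitors lower the luminescence signal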
[13] = NIH3T3 cell viability loss – ATP luminescence, mouse fibroblasts, counter-screen, dose response (AID 2010); format: functional, cell-based;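 further: cells exposed to compound for about 90 hours before reading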
[14] = target: Transitional endoplasmic reticulum ATPase (Homo sapiens, UniProt P55072); experiment: p97 ATPase inhibitors, dose response, biochemical (AID 1534)
Transitional endoplasmic reticulum ATPase (Homo sapiens, UniProt P55072), sequence (P55072 whole entry): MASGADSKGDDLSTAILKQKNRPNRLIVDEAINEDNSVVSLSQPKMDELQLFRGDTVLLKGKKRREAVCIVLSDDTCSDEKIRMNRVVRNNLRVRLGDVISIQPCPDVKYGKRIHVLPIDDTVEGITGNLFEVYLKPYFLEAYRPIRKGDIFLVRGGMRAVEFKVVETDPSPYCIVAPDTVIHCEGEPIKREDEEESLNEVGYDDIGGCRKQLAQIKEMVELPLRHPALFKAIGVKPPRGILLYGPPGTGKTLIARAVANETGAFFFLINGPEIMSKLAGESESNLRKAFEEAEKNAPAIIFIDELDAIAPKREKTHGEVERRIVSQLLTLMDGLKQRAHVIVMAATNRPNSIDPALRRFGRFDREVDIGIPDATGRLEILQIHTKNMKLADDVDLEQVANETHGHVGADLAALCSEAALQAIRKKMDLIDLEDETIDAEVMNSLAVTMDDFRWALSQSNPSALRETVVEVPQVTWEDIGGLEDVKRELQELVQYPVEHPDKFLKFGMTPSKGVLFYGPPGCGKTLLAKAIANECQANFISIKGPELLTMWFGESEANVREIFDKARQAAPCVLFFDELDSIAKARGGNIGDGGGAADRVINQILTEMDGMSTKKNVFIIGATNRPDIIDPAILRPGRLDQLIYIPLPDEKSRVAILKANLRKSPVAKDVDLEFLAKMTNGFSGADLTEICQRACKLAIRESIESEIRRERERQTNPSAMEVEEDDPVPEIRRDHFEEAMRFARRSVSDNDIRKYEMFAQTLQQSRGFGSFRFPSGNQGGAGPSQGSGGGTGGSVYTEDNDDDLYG

cells [15] = format: functional
[16] = target: Heat shock protein HSP 90-alpha (Homo sapiens, UniProt P07900); format: functional, organism-based
[17] = target: Mitochondrial peptide methionine sulfoxide reductase (Bos taurus, UniProt P54149); experiment: Absorbance-based biochemical high throughput dose response assay for activators of Methionine sulfoxide reductase A (MsrA).; format: functional
Mitochondrial peptide methionine sulfoxide reductase, sequence (P54149 whole entry): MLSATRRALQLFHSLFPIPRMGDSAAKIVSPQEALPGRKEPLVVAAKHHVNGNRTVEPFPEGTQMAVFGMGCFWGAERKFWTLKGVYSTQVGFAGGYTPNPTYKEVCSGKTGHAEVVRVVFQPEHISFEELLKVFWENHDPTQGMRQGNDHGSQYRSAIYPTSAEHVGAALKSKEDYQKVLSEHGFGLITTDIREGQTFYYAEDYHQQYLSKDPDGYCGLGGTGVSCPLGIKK

[18] = target: Acyl-homoserine lactone acylase PvdQ (Pseudomonas aeruginosa (strain LESB58), UniProt Q9I194); experiment: PvdQ acylase enzyme activity blockers – biochemical, fluorescence, plate reader and imaging, cherry-picks, dose response (AID 493231)
Acyl-homoserine lactone acylase PvdQ, sequence (Q9I194 24-193 limits assumed): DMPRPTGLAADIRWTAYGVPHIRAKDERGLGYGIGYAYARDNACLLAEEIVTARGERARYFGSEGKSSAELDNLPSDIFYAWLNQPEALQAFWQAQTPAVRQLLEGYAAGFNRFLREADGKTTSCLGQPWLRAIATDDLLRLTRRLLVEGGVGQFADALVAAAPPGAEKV
Acyl-homoserine lactone acylase PvdQ, sequence (Q9I194 217-762 limits assumed): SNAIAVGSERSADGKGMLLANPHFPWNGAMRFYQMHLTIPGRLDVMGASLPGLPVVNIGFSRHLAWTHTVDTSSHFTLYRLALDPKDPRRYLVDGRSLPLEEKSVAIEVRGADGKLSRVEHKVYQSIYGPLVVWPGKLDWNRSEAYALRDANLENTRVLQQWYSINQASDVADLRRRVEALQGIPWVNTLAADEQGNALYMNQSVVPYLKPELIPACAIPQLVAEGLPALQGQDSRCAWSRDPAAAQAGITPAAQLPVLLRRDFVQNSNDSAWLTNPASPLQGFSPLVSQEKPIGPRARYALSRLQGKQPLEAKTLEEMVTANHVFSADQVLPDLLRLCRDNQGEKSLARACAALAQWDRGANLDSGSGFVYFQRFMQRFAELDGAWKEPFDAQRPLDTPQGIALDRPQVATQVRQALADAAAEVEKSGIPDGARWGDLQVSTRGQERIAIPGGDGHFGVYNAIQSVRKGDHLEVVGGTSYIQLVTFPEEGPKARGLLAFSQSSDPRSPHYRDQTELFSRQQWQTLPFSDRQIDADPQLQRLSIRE

[19] = target: T5, Alkaline phosphatase, tissue-nonspecific isozyme (Homo sapiens, UniProt P05186)
T5 sequence (P05186 whole entry): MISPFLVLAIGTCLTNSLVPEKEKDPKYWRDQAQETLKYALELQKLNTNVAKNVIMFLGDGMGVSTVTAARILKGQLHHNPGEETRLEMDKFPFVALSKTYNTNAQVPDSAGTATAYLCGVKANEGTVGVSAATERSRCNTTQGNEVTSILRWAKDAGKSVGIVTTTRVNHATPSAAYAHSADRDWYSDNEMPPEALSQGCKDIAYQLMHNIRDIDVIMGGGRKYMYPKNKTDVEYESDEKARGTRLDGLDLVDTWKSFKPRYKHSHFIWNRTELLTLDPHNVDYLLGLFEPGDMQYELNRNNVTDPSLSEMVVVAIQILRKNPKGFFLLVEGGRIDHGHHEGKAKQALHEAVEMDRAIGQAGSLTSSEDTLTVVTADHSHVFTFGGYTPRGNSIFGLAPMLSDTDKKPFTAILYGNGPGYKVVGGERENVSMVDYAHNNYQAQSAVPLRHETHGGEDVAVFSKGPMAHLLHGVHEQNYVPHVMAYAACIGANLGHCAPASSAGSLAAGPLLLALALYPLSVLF

HEK293 [20] = experiment: PMA/Ionomycin induced NF-kB luciferase assay in 293- NF-kB-Luc stable cells. [Related pubchem assays: 1299, 1270, 1295, 1375, 1287, 1281, 1293, 1291, 1289, 1280, 465, 1364, 1282, 1372, 1365, 1370, 1367, 1366, 1269, 1373, 1292, 1290, 1302, 1371, 1283, 1271, 1294, 1374, 1368, 1369 ]; format: functional, cell-based; conditions: Homo sapiens
[21] = target: Luciferin 4-monooxygenase (Photinus pyralis, UniProt P08659); experiment: In vitro luciferase assay using purified luciferase. [Related pubchem assays: 1299, 1270, 1295, 1375, 1287, 1281, 1293, 1291, 1289, 1280, 465, 1364, 1282, 1372, 1365, 1370, 1367, 1366, 1266, 1373, 1292, 1290, 1302, 1371, 1283, 1271, 1294, 1374, 1368, 1369 ]
Luciferin 4-monooxygenase, sequence (P08659 whole entry): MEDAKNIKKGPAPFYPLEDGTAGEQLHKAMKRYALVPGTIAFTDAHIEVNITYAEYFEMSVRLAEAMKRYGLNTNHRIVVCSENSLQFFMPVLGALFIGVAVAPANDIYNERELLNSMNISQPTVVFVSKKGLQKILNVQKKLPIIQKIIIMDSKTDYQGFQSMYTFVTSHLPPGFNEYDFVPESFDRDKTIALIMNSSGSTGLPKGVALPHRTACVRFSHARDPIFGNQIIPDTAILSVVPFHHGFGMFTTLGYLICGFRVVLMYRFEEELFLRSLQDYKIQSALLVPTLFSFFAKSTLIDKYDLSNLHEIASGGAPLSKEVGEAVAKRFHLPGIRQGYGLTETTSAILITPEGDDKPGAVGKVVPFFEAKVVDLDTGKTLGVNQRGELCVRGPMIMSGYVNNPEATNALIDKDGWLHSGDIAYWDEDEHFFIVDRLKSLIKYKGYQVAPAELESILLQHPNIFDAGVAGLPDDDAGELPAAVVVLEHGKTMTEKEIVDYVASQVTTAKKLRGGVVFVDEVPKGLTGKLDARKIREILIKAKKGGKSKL

HEK293 [22] = experiment: Cytotoxicity assay in HEK293 cells. [Related pubchem assays (depositor defined):AID1266, AID1269, AID1270, AID1271, AID1280, AID1281, AID1282, AID1283, AID1287, AID1289, AID1290, AID1291, AID1292, AID1293, AID1294, AID1295, AID1299, AID1302, AID1364, AID1365, AID1366, AID1367, AID1369, AID1370, AID1371, AID1372, AID1373, AID1374, AID1375, AID1384 …; format: functional, cell-based; conditions: Homo sapiens
HEK293 [23] = experiment: TNF Induced NF-kB Luciferase in 293-NF-kB-Luc Stable Cells. [Related pubchem assays: 1266, 1299, 1269, 1373, 1292, 1290, 1302, 1371, 1283, 1270, 1295, 1271, 1375, 1294, 1374, 1281, 1293, 1291, 1289, 1280, 465, 1368, 1364, 1282, 1372, 1365, 1369, 1370, 1367, 1366 ]; format: functional, cell-based; conditions: Homo sapiens
[24] = target: Photoreceptor-specific nuclear receptor (Homo sapiens, UniProt Q9Y5X4); format: functional, cell-based;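 further: CHO-S cells with Gal4-NCOR and VP16-NR2E3 two-hybrid luciferase reporter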
Photoreceptor-specific nuclear receptor, sequence (Q9Y5X4 whole entry, the tested form may be a part): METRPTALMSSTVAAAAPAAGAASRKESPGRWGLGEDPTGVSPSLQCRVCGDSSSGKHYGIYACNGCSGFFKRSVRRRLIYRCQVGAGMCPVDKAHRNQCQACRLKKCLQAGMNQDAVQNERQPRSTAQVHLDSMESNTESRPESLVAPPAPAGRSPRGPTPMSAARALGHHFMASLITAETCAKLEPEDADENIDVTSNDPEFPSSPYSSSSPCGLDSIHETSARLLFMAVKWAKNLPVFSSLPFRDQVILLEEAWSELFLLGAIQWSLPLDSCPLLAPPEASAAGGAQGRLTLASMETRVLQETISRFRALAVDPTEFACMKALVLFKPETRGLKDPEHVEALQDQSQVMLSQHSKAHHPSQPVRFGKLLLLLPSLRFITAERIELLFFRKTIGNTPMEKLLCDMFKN

[25] = A549 cell cytotoxicity, dose response, cytotoxicity control, plate reader, cherry-pick, antagonist series (AID 743412); format: functional, cell-based
[26] = toxicity toward HepG2 liver cells – cell-based, plate reader, cherry-pick, antagonist series, cytotoxicity control, dose response (AID 743416); format: functional
[27] = blockers of bursicon-stimulated LGR2 cAMP reporter – cell-based, HEK293, CRE-luciferase reporter, cherry pick, set 2, dose response (AID 743343); format: functional;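 further: transfected cells were stimulated with diluted bursicon conditioned medium after compound addition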
[28] = blockade of melanocortin 4 receptor signaling – cell-based, plate reader, cherry pick, counter-screen for LGR2 antagonist project, dose response (AID 743444); format: functional;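 further: transfected HEK 293 cells stimulated with alpha-MSH peptide; potency of inhibitors of the alpha-MSH evoked signal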
[29] = viability loss in HEK293 cells – cell-based, plate reader, cherry-picked samples, cytotoxicity control, dose response (AID 743446); format: functional
[30] = target: G2/mitotic-specific cyclin-B1 (Homo sapiens, UniProt P14635); experiment: Counterscreen assay for inhibitors of Wee1 degradation: dose response cell-based assay to identify inhibitors of cyclin B degradation. [Related pubchem assays: 1410, 1321 ]; format: functional
Wee1-like protein kinase = Wee1-like protein kinase (Homo sapiens, UniProt P30291); experiment: Dose Response Cell-based Assay for Inhibitors of Wee1 Degradation. [Related pubchem assays: 1410, 1321 ]; format: functional
Wee1-like protein kinase, sequence (P30291 whole entry): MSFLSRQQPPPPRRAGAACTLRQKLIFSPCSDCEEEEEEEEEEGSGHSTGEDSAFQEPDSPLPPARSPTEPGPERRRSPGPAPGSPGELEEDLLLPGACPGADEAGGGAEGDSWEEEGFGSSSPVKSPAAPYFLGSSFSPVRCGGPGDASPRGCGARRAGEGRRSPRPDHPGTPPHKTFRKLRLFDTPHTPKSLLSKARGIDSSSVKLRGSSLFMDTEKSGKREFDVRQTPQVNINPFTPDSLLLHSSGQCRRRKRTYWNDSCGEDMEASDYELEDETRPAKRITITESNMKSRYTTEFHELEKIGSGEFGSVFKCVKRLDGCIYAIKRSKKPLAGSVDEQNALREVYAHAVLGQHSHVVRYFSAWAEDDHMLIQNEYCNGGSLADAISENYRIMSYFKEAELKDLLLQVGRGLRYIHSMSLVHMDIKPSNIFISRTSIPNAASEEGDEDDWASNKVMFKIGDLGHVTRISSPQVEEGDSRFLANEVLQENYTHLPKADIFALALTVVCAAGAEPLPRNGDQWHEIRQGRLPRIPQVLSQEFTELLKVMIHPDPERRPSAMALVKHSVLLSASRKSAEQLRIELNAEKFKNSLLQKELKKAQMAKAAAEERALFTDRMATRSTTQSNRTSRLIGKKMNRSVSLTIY

Cc1sc2cc3c(c(C(=O)c4ccccc4)[n+]2c1C)-c1cccc2cccc-3c12
EC50 (HEK293 [1]): 12.3 µM (not active) | EC50 [2]: 6.52 µM (active) | EC50 (cells [3]): > 350 µM (not active) | EC50 [4]: 11.5 µM (not active) | EC50 (Streptokinase A): 31.9 µM (active) | EC50 (cells [5]): > 350 µM (not active) | EC50 [6]: 8.19 µM (active) | EC50 (Streptococcus): 23.5 µM (active) | EC50 (BJ): 30.6 µM (active) | AC50 (INS1): 1.91 µM (active) | AC50 [7]: 1.43 µM (active)

CC(C)(C)NC(=O)C(c1ccc(O)cc1)N(C(=O)Cn1nnc(-c2ccc(F)cc2)n1)c1ccccc1F (stereo not given)
EC50 [8]: > 35.4 µM (not active) | IC50 (HEK293 [9]): 16.8 µM (not active) | EC50 [10]: > 35.4 µM (not active)

O=C(OCC(=O)c1c[nH]c2ccccc12)c1ccc([N+](=O)[O-])s1
IC50 [11]: > 50 µM (not active) | EC50 [12]: 1.04 µM (active) | EC50 [13]: > 60 µM (not active) | IC50 [14]: > 50 µM (not active) | IC50 (cells [15]): 1.62 µM (active) | AC50 [16]: 3.8 µM (active) | EC50 [17]: 36.4 µM (inactive)

Clc1cccc(CNCCCSc2ncccn2)c1
AC50 [18]: 6.84 µM (active)

Cc1c(Cl)c(C(=O)NNC(=S)Nc2ccccc2)nn1C
EC50 [19]: 50.5 µM (not active)

Clc1ccc(-n2ncc3c(N4CCCCCC4)ncnc32)cc1
EC50 (HEK293 [20]): 2.77 µM (active) | EC50 [21]: > 8 µM (not active) | EC50 (HEK293 [22]): > 13.2 µM (inactive) | EC50 (HEK293 [23]): 3.73 µM (active) | IC50 [24]: 4.43 µM (active) | AC50 [25]: > 52 µM (inactive) | AC50 [26]: > 52 µM (inactive) | AC50 [27]: < 0.068 µM (active) | AC50 [28]: < 0.068 µM (active) | AC50 [29]: > 52 µM (inactive)

COc1cccc(/C=N/NC(=O)c2cc3c(OC)c(OC)ccc3[nH]2)c1OC
EC50 [30]: > 49.7 µM (not active) | EC50 (Wee1-like protein kinase): > 49.7 µM (not active)
